Legend:
cat = settings: active ingredient; cited from earlier work
dog = settings: active ingredient; cited from earlier work
rat = settings: active ingredient; cited from earlier work
mouse = settings: active ingredient; cited from earlier work
infesting murine species = assay type: in vivo; settings: same amount of anticoagulant
[1] = WHO, 1995, cited from earlier work
[2] = cited from earlier work
Mus musculus = settings: both genders and all ages of the Mus musculus; cited from earlier work
murine population = settings: in vivo; cited from earlier work
Rattus norvegicus = settings: young prepubertal; females of Rattus norvegicus; cited from earlier work
[3] = liver and kidney, two-phase course

SMILES	a.p. LD50 (cat) [mg/kg]	a.p. LD50 (dog) [mg/kg]	a.p. LD50 (rat) [mg/kg]	a.p. LD50 (mouse) [mg/kg]	disinfesting action with respect to that of brodifacoum (infesting murine species)	elimination from both liver and kidney, rather rapid initial phase [1, 3] [days]	elimination from both liver and kidney, second, much slower, phase [1, 3] [days]	half-life in the pancreas ([1]; pancreas) [days]	half-life in man [2] [days]	activity as chemosterilant (Mus musculus)	eliminating of the treated murine population (murine population)	activity as chemosterilant (Rattus norvegicus)
O=c1oc2ccccc2c(O)c1C1CC(c2ccc(-c3ccc(Br)cc3)cc2)Cc2ccccc21 (stereo not drawn) [BRODIFACOUM, brodifacoum]	25	0.25 to 3.6	0.4	0.4	–	–	–	–	–	–	–	–
O=c1oc2ccccc2c(O)c1C(CC(O)c1ccc(-c2ccc(Br)cc2)cc1)c1ccccc1 (stereo not drawn) [BROMADIOLON, bromadiolon]	>25	>10.0	1.125	1.75	inferior	–	–	–	–	–	–	–
O=c1oc2ccccc2c(O)c1C1CC(c2ccc(-c3ccccc3)cc2)Cc2ccccc21 (stereo not drawn) [DIPHENACOUM, diphenacoum]	>100	>50.0	1.8	0.8	inferior	3	118 to 120	182	11.5	–	–	–
OCC(O)CCl (stereo not drawn) [α-chlorohydrin]	–	–	–	–	–	–	–	–	–	not active	up to 85%	not active

Source: patent publication EP2090164B1, “A rodenticide bait based on a synergetic association of anticoagulant active ingredients” (priority 2008, dated 2009)
